Test results published in US9623123B2, “Fluorescent conjugated polymers with a bodipy-based backbone and uses thereof” (Michigan Technological University, priority 2008, dated 2017).

Legend:
[1] = Fluorescence lifetime measurement; type: physicochemical
Description: (§1) ^1H NMR and ^13C NMR spectra were taken on a 400 MHz Varian Unity Inova spectrophotometer instrument. ^1H and ^13C NMR spectra were recorded in CDCl3, and chemical shifts (5) are given in ppm relative to solvent peaks (at 7.24 ppm for ^1H spectra and at 77.3 for ^13C spectra) as internal standard. UV spectra were taken on a Hewlett-Packard 8452A Diode Array UV-visible spectrophotometer. Fluorescence spectra were recorded on a Spex Fluorolog 1681 0.22 m steady-state fluorometer. Fluorescence quantum yields of BODIPY dyes and polymers were measured in methylene chloride and calculated by using fluorescein excited at 490 nm in 0.1 N NaOH as the reference (its quantum efficiency of 85%). Fluorescence lifetimes were measured on a GL-3300 Nitrogen Laser laserstrobe PTI instrument and analyzed using FeliX32 software.
^1H NMR and ^13C NMR spectra were taken on a 400 MHz Varian Unity Inova spectrophotometer instrument. ^1H and ^13C NMR spectra were recorded in CDCl3, and chemical shifts (δ) are given in ppm relative to solvent peaks (^1H, δ 7.26; ^13C, δ 77.3) as internal standard. UV spectra were taken on a Hewlett-Packard 8452A Diode Array UV-visible spectrophotometer. Fluorescence spectra were recorded on a Spex Fluorolog 1681 0.22 m steady-state fluorometer. Fluorescence quantum yields of BODIPY dyes and polymers were measured in methylene chloride and calculated by using fluorescein exCIted at 490 nm in 0.1 N NaOH as the reference (quantum effiCIency, cPn=85%). Fluorescence lifetimes were measured on a 010-3300 Nitrogen Laser laserstrobe PTI instrument and analyzed using FeliX32 software. Molecular weights of the polymers were determined by gel permeation chromatography (OPC) by using a Waters AssoCIates model 6000A liquid chromatograph. Three American Polymer Standards Corp. ultrastyragel columns in series with porosity indices of 103, 104, and 105 A were used and housed in an oven thermostatted at 30° C. The mobile phase was HPLC grade THF which was filtered and degassed by vacuum filtration through a 0.5, urn fluoropore filter prior to use. The polymers were detected by a Waters Model 440 ultraviolet absorbance detector at a wavelength of 254 nm and a Waters Model 2410 refractive index detector. Molecular weights were determined relative to polystyrene standards.

[2] = UV-visible absorption and fluorescence spectra, fluorescence quantum yields in solution; type: physicochemical; conditions: for Quantum yield: methylene chloride solution, fluorescein standard (Table 10, Example 14)
Description: ^1H NMR and ^13C NMR spectra were taken on a 400 MHz Varian Unity Inova spectrophotometer instrument. ^1H and ^13C NMR spectra were recorded in CDCl3, chemical shifts (δ) are given in ppm relative to solvent peaks (1H: δ 7.26; 13C: δ 77.3) as internal standard. UV spectra were taken on a Hewlett Packard 8452A Diode Array UV-visible spectrophotometer. Fluorescence spectra were recorded on a Spex Fluorolog 1681 0.22 m steady-state fluorometer. Fluorescence quantum yields of BODIPY dyes and polymers were measured in methylene chloride and DMF, and calculated by using fluorescein excited at 490 nm in 0.1 N NaOH as the reference absolute quantum efficiency (φn=85%). Molecular weights of the polymers were determined by gel permeation chromatography (“GPC”) by using a Waters Associates Model 6000A liquid chromatograph. Three American Polymer Standards Corp. Ultrastyragel columns in series with porosity indices of 10^3, 10^4, and 10^5 Å were used and housed in an oven thermostated at 30° C. Mobile phase was HPLC grade THF which was filtered and degassed by vacuum filtration through a 0.5 μm fluoropore filter prior to use. The polymers were detected by a Waters Model 440 ultraviolet absorbance detector at a wavelength of 254 nm and a Waters Model 2410 refractive index detector. Molecular weights were measured relative to polystyrene standards. An Enraf Nonius CAD-4 X-Ray diffractometer was used in the crystal structure determination. The windows program WinGX was used as the interface for the solution and refinement of the model. The data were first reduced and corrected for absorption using the psi-scans, and then solved using the program SIR2004. The model was refined using SHELXL97.
as §1
^1H NMR and ^13C NMR spectra were taken on a 400 MHz Varian Unity Inova spectrophotometer instrument. ^1H and ^13C NMR spectra were recorded in CDCl3, chemical shifts (δ) are given in ppm relative to solvent peaks (^1H: δ 7.26; ^13C: δ 77.3) as internal standard. UV spectra were taken on a Hewlett Packard 8452A Diode Array UV-visible spectrophotometer. Fluorescence spectra were recorded on a Spex Fluorolog 1681 0.22 m steady-state fluorometer. Fluorescence quantum yields of BODIPY dyes and polymers were measured in methylene chloride and DMF, and calculated by using fluorescein excited at 490 nm in 0.1 N NaOH as the reference quantum efficiency (φn=85%).^30,31 Molecular weights of the polymers were determined by gel permeation chromatography (GPC) by using a Waters Associates Model 6000A liquid chromatograph. Three American Polymer Standards Corp. Ultrastyragel columns in series with porosity indices of 10^3, 10^4, and 10^5 Å were used and housed in an oven thermostated at 30° C. Mobile phase was HPLC grade THF which was filtered and degassed by vacuum filtration through a 0.5 μm fluoropore filter prior to use. The polymers were detected by a Waters Model 440 ultraviolet absorbance detector at a wavelength of 254 nm and a Waters Model 2410 refractive index detector. Molecular weights were measured relative to polystyrene standards. […]

[3] = methylene chloride solution (Table 9, Example 13)
[4] = methylene chloride solution (Table 10, Example 14)

| Fluorescence lifetime [1, 3] | Fluorescence lifetime [1, 4] | Absorption maxima [2, 3] | Emission maxima [2, 3] | Stokes shift [2, 3] | Absorption maxima [2, 4] | Emission maxima [2, 4] | Quantum yield [2] | Structure (SMILES) |
| --- | --- | --- | --- | --- | --- | --- | --- | --- |
| 3.6 ns | 4.2 ns | 539 nm | 551 nm | 12 nm | 538 nm | 552 nm | 63% | C#CC1=C(C)C2=C(c3ccc(OCCCCCCCCCCCC)cc3)c3c(C)c(C#C)c(C)n3[B-](F)(F)[N+]2=C1C [Compound 6a] |
| 3.9 ns | 5.9 ns | 540 nm | 5.52 nm | 12 nm | 539 nm | 553 nm | 67% | C#CC1=C(C)C2=C(c3ccc(OCCCCCCCCCCCC)c(OCCCCCCCCCCCC)c3)c3c(C)c(C#C)c(C)n3[B-](F)(F)[N+]2=C1C [Compound 6b] |
| 3.0 ns |  | 541 nm | 553 nm | 12 nm |  |  |  | C#CC1=C(C)C2=C(c3cc(OCCCCCCCCCCCC)c(OCCCCCCCCCCCC)c(OCCCCCCCCCCCC)c3)c3c(C)c(C#C)c(C)n3[B-](F)(F)[N+]2=C1C [Compound 6c] |
